The text below walks through data of patent US20100092499A1, “Alpha Thymosin Peptides as Cancer Vaccine Adjuvants” (SCICLONE PHARMACEUTICALS, INC., priority 2004, published 2010).

The conditions of series [1]: in vivo; cited from earlier work.
For the next series, the system named is patient tumor cells. Briefly: Lymphocyte Proliferation Assay (LPI). The class given is cell-based, human. To be noted: five patients with LPI lower than 20 U after second DC immunization; thymalfasin 1.6 mg twice a week for 6 months plus 4 additional DC vaccine courses. The method, then: (§1) After the second vaccination course, the cellular immunization were measured, if this is >=20 ULPI (Linfocitic Proliferative Index) continued with the vaccination.
The patient immune response was measured using a well known in-vitro test named Lymphocyte Proliferation Assay. Briefly, mononuclear cells from the patient were purified and mixed with a suspension of the patient tumor cells at ratio 10:1 (3000 Lympho-monocytes vs 300 tumor cells). The mix cell suspension was seeded in a multi well plate and incubated at 37° C. After 96 hr the cells were harvested and counted by an automatic haemocytometer.

The subject of the next series is advanced breast cancer. Nature of the series: Clinical study of dendritic cell vaccine with or without thymalfasin in advanced breast cancer patients. The class given is in vivo, human. Conditions: for Patient Survival: 12 months; for Patient Survival / Patients with Tumor Reduction >50%: Group 3 non responders (LPI <20 U), 6 dendritic cell immunizations plus thymalfasin 1.6 mg twice a week, n=5; for Patients with Tumor Reduction >50%: Month 6. How it is done:
Finally, the patients were immunized with the activated B cells hybrid itself, or a B cell hybrid cocultured with the patients' Dendritic Cells. This immunization was applied into a healthy lymph node once every three weeks. At the same time, the patients received 1.6 mg thymalfasin subcutaneously in the evenings (within between 7:00 pm and 9:00 pm) every 3 days during the time of immunization and for the following six months after the vaccination protocol was completed. This vaccination plan may, for example, involve from 4 to 10 doses, although these numbers are not exclusive.
Eighteen patients with advanced breast cancer resistant to chemo, radio and hormonotherapy were treated.
All the patients were female with Breast Cancer class 4 (with metastases).
The age rank was between 39 to 71 years.
The patients were treated with dendritic cell vaccine (according protocol: Annals of Oncology 2004-Vol 15. Supp. 3 Abs: iii40-Dendritic Cell Vaccine for Metastases Breast Cancer).
as §1
If the response was <20 ULPI, the patients were divided in 2 groups (randomized) of 5 and 7 patients group. The 5 patients group received Dendritic Cells
Vaccine plus thymalfasin (1.6 mg/tw during 6 months).
The clinical response and the survival data originated on total 18 metastatic breast patients treated were collected and, in order to perform a case serial statistic analysis we divided the total population in three different groups.
In Group 3 (n=5), patients received 6 dendritic cell immunizations with an LPI <20 U (non immune response) after the second vaccine and they received thymalfasin (1.6 mg/twice a week).

The next series concerns human CD34 stem cells. To be noted: added to human CD34 stem cells in culture; cited from earlier work.
For the next series, the system named is thymocytes. Conditions: in vitro, dose-dependent; most pronounced on CD4CD8 double positive immature T cells; cited from earlier work.
Series [2] deals with IFNγ, IL-2, IL-3, IL-2 receptor. To be noted: following activation by mitogens or antigens; cited from earlier work.

As to thymosin alpha 1 [thymalfasin], the “safety / side effects” value in series [1] was “safe drug and its potential side effects are significantly low”. For the same substance, in the series on patient tumor cells, the “Lymphocyte Proliferation Index (LPI)” value is “able to improve the LPI”. Further, in the series with advanced breast cancer, the “Patient Survival” value was 80% and the “Patients with Tumor Reduction >50%” value came out at 80%. In the series with advanced breast cancer (listed as THYMALFASIN), the “Patient Survival” value is given as 80% and the “Patients with Tumor Reduction >50%” value stood at 80%. The “Patient survival compared with immune responders and non immune responders who did not receive thymalfasin” value in the series on advanced breast cancer (advanced breast cancer patients, dendritic cell immunization) is “higher”. Moreover, the effective tumor response entry in the series with advanced breast cancer (five patients with LPI lower than 20 U, thymalfasin 1.6 mg twice a week for 6 months plus 4 additional DC vaccine courses) is recorded as “majority of the treated patients showed an effective tumor response”. Besides, the “thymopoiesis (number of total CD3 T cells, synthesis of IL-7)” value in the series with human CD34 stem cells was “increased thymopoiesis”. The “dexamethasone-induced apoptosis in thymocytes” value in the series with thymocytes is “antagonizes”. Also, the “production of IFNγ, IL-2, IL-3 and expression of the IL-2 receptor” value in series [2] is “can increase production”.
